Consider 4 molecules from patent US4431809A, “Antibiotic A-33853 derivatives” (Eli Lilly and Company, priority 1982, dated 1984).

Converted amounts (≈) assume the structure as drawn. Where two headings read alike, the source gives them in different places.

The test system of data set [1] is Staphylococcus aureus 3055. In words: Disc-plate screening. The note with it: benzylpenicillin-susceptible, read-out: Zone Diameter. The format is cell-based. The protocol: (§1) Agar plates, inoculated with the test organism, were used; 6 mm. discs (0.02 ml. capacity) were saturated from log 2 dilutions of the antibiotic solution. Disc content was 1/5 or 1/50 of the concentration of the solution used, i.e., disc content of […] 30 μg. was obtained from a solution of 1500 μg./ml. concentration.

In data set [2] the test system is Streptococcus pyogenes C203. As to the kind of experiment: Disc-plate screening. The format is cell-based. The note with it: read-out: Zone Diameter. The protocol:
as §1

In data set [3] the test system is Staphylococcus aureus 3130. As to the kind of experiment: Disc-plate screening. The format is cell-based. The following applies: benzylpenicillin resistant, methicillin resistant, read-out: Zone Diameter. As to the method:
as §1

Data set [4] has as its system Staphylococcus aureus 3074. In words: Disc-plate screening. It counts as cell-based. The following applies: benzylpenicillin resistant, read-out: Zone Diameter. The protocol: as §1
The subject of another data set is mosquito. In words: Mosquito larvicide activity. It counts as in vivo. The following applies: in words.
Data set [5] concerns Maryland B influenza virus. As to the kind of experiment: In vitro antiviral activity, Maryland B influenza virus. It counts as cell-based. The following applies: in words.
In data set [6] the test system is Staphylococcus aureus 3074. In words: Agar-dilution screening (ICS). The format is cell-based. The note with it: benzylpenicillin resistant.
A further data set can be described thus: physchem. The note with it: 66% dimethylformamide in water.
Data set [7] deals with Staphylococcus aureus 3055. As to the kind of experiment: Agar-dilution screening (ICS). It counts as cell-based. The note with it: benzylpenicillin-susceptible.
Another data set concerns Trichomonas vaginalis. As to the kind of experiment: Tube-dilution test, Trichomonas vaginalis. The format is cell-based. The note with it: for MIC: Trichomonas vaginalis, tube-dilution test, T. vaginalis, read-out: minimal inhibitory concentration (MIC); for in vitro activity against Trichomonas vaginalis: in words.
The test system of the next data set is Salmonella typhosa SA12. As to the kind of experiment: Agar-dilution screening (ICS). The following applies: Salmonella enterica.
A short description of data set [8]: Acute toxicity in the mouse, IP. The note with it: in vivo.
The next data set relates to Mycoplasma gallisepticum. In words: In vitro MIC, bacteria pathogenic to animals. The format is cell-based. The following applies: Mycoplasmoides gallisepticum. The protocol:
(§2) Antibiotic A-33853 was also tested in vitro to determine the MIC in μg./ml. against a number of bacterial organisms pathogenic to animals.

In data set [9] the test system is Pasteurella multocida (bovine). In words: In vitro MIC, bacteria pathogenic to animals. It counts as cell-based. As to the method: as §2
A further data set relates to Escherichia coli. In words: In vitro MIC, bacteria pathogenic to animals. It counts as cell-based. The protocol:
as §2

Another data set relates to Mycoplasma hyopneumoniae. As to the kind of experiment: In vitro MIC, bacteria pathogenic to animals. The format is cell-based. The following applies: Mesomycoplasma hyopneumoniae. The protocol: as §2
The test system of data set [10] is Pasteurella multocida (turkey). In words: In vitro MIC, bacteria pathogenic to animals. It counts as cell-based. As to the method:
as §2

A further data set relates to Mycoplasma hyorhinis. As to the kind of experiment: In vitro MIC, bacteria pathogenic to animals. The format is cell-based. As to the method: as §2
The subject of a further data set is Staphylococcus sp. As to the kind of experiment: In vitro MIC, bacteria pathogenic to animals. It counts as cell-based. The protocol: as §2
The subject of a further data set is Aeromonas liquefaciens. As to the kind of experiment: In vitro MIC, bacteria pathogenic to animals. The format is cell-based. The following applies: Aeromonas hydrophila. As to the method:
as §2

The next data set relates to Pseudomonas (fish). In words: In vitro MIC, bacteria pathogenic to animals. It counts as cell-based. As to the method: as §2
For data set [11], the system named is Bordetella bronchiseptica. In words: In vitro MIC, bacteria pathogenic to animals. The format is cell-based. The protocol:
as §2

The test system of another data set is Pseudomonas (animal). As to the kind of experiment: In vitro MIC, bacteria pathogenic to animals. It counts as cell-based. As to the method: as §2
Another data set concerns Streptococcus sp. As to the kind of experiment: In vitro MIC, bacteria pathogenic to animals. It counts as cell-based. As to the method:
as §2

For the next data set, the system named is Salmonella dublin. As to the kind of experiment: In vitro MIC, bacteria pathogenic to animals. The format is cell-based. The note with it: Salmonella enterica. The protocol:
as §2

The test system of a further data set is Mycoplasma synoviae. As to the kind of experiment: In vitro MIC, bacteria pathogenic to animals. It counts as cell-based. The following applies: Mycoplasmopsis synoviae. As to the method: as §2
In another data set the test system is Eimeria tenella. As to the kind of experiment: In vitro activity against Eimeria tenella. It counts as cell-based. The note with it: in words.
The nature of the next data set: Solubility. It counts as physicochemical.
In data set [12] the test system is Staphylococcus aureus X400. The format is cell-based. The note with it: agar-dilution, 24 hours.
Data set [13] concerns Staphylococcus epidermidis 222. It counts as cell-based. The following applies: agar-dilution, 24 hours.
The subject of data set [14] is Staphylococcus aureus V41. It counts as cell-based.
Data set [15] relates to Streptococcus pneumoniae Park I. The format is cell-based. The following applies: 24 h.
Data set [16] relates to Streptococcus pyogenes C203. It counts as cell-based. The following applies: agar-dilution, 24 hours.
Data set [17] has as its system Haemophilus influenzae C.L. The format is cell-based. The following applies: agar-dilution, 24 hours.
Data set [18] deals with Haemophilus influenzae 76. The format is cell-based. The following applies: agar-dilution, 24 hours.
Data set [19] has as its system Staphylococcus epidermidis EPI1. The format is cell-based. The note with it: EPI1, 24 h.
Data set [20] relates to Streptococcus sp. Group D X66. It counts as cell-based.
Data set [21] concerns Streptococcus sp. Group D 9960. The format is cell-based. The following applies: agar-dilution, 24 hours.
For data set [22] the following is noted: 66 percent aqueous dimethylformamide.
Setting [23] is: alkaline solutions and most organic solvents.

What is called pKa is the pH at which an ionisable group is half protonated. A higher pKa goes with a group that holds its proton tightly. Broadly, the LD50 is the dose expected to kill half of the subjects tested. Lower therefore signals a more toxic substance. Usually solubility stands for how much of the substance goes into solution per volume. Regarding `O=C(Nc1c(O)cccc1-c1nc2c(C(=O)O)cccc2o1)c1ncccc1O` [A-33853, 2-[3-hydroxy-2-[[(3-hydroxy-2-pyridinyl)carbonyl]amino]phenyl]-4-benzoxazolecarboxylic acid], the zone of inhibition at 30 µg/disc was found to be 10 mm in [1] (30 μg./disc), 0 mm in data set [2] (30 μg./disc), 13.2 mm in data set [3] (30 μg./disc) and 10.4 mm in [4] (30 μg./disc). Also, the zone of inhibition at 300 µg/disc is 11 mm in data set [1] (300 μg./disc), 8 mm in data set [2] (300 μg./disc), 13.4 mm in data set [3] (300 μg./disc) and 11.6 mm in data set [4] (300 μg./disc). Moreover, in the data set with mosquito, the mosquito larvicide activity result is “active as a mosquito larvicide”. Further, the “growth inhibition / activity in vitro” value in data set [5] was “inhibits the growth in vitro”. Moreover, the MIC in [6] is 2 µg/mL (≈ 5.11 µM); in [7], 2 µg/mL (≈ 5.11 µM); with Trichomonas vaginalis it was below 0.975 µg/mL; in the data set on Salmonella typhosa SA12 it was 2 µg/mL (≈ 5.11 µM); against Mycoplasma gallisepticum, 1.56 µg/mL (≈ 3.99 µM); in data set [9], 1.56 µg/mL (≈ 3.99 µM). Further, the MIC was above 50 µg/mL in the data set with Escherichia coli; below 0.78 µg/mL in the data set with Mycoplasma hyopneumoniae; 6.25 µg/mL (≈ 16 µM) in data set [10]; 1.56 µg/mL (≈ 3.99 µM) against Mycoplasma hyorhinis; 3.12 µg/mL (≈ 7.97 µM) with Staphylococcus sp.; 3.12 µg/mL (≈ 7.97 µM) with Aeromonas liquefaciens. Moreover, the MIC is 50 µg/mL (≈ 128 µM) against Pseudomonas (fish); above 50 µg/mL in [11]; above 50 µg/mL in the data set on Pseudomonas (animal); 6.25 µg/mL (≈ 16 µM) with Streptococcus sp.; above 50 µg/mL in the data set with Salmonella dublin; 1.56 µg/mL (≈ 3.99 µM) in the data set on Mycoplasma synoviae. Further, the pKa was around 7.25 in “physchem” (pH 5, pKa (first titratable group)); around 10 in the data set “physchem” (pH 5, pKa (second titratable group)); around 12.2 in the data set “physchem” (pH 5, pKa (third titratable group)). The “in vitro activity against Trichomonas vaginalis” value in the data set on Trichomonas vaginalis is recorded as “active in vitro”. The same molecule gave an LD50 in data set [8] above 300 mg/kg. The “in vitro activity against Eimeria tenella” value with Eimeria tenella is on record as “active in vitro”. The solubility entry in the data set “Solubility” (acetone, methanol, ethyl acetate, tetrahydrofuran, chloroform, and water) was “less soluble”; in “Solubility” (organic solvent or mixture, soluble in dimethylsulfoxide, pyridine, and 0.1 N sodium hydroxide, read-out: solubility) it was at least 5000 µg/mL.
Turning to `CC(=O)Oc1cccnc1C(=O)Nc1c(OC(C)=O)cccc1-c1nc2c(C(=O)O)cccc2o1` [diacetyl derivative], the MIC in data set [12] was found to be 16 µg/mL (≈ 33.7 µM); in data set [13] it was 4 µg/mL (≈ 8.41 µM); in [14] (V41, 24 h), 16 µg/mL (≈ 33.7 µM); in [15] it was 8 µg/mL (≈ 16.8 µM); in [16], 8 µg/mL (≈ 16.8 µM); in [17], 4 µg/mL (≈ 8.41 µM). In addition, the MIC is 64 µg/mL (≈ 135 µM) in data set [18], 8 µg/mL (≈ 16.8 µM) in [19], above 128 µg/mL in data set [20] (24 h) and above 128 µg/mL in data set [21]. Further, the pKa in “physchem” (pH 4.92, pKa) came out at 6.8. In addition, the solubility result in “Solubility” (setting [23]) is “soluble”; in the data set “Solubility” (hydrocarbon solvents and water), “insoluble”.
Consider `CC(=O)OC(=O)c1cccc2oc(-c3cccc(OC(C)=O)c3N(C(C)=O)C(=O)c3ncccc3OC(C)=O)nc12` [tetraacetyl A-33853, 2-[2-[acetyl[[3-(acetyloxy)-2-pyridinyl]carbonyl]amino]-3-(acetyloxy)phenyl]-4-benzoxazolecarboxylic acid, anhydride with acetic acid], for which, in data set [5], the “growth inhibition / activity in vitro” value is “active in vitro”. Also, in the data set with Trichomonas vaginalis, the MIC came out at 125 µg/mL (≈ 223 µM) and the “in vitro activity against Trichomonas vaginalis” value is on record as “active in vitro”. In [22], the titratable groups result was “no titratable groups”. The solubility entry in the data set “Solubility” (acetone, methanol, ethyl acetate, tetrahydrofuran, water, dimethyl sulfoxide, 0.1 N aqueous NaOH, 0.1 N aqueous HCl) is given as “insoluble, or only sparingly soluble”. In addition, the solubility in the data set “Solubility” (organic solvent or mixture, soluble in pyridine and chloroform, read-out: solubility) was at least 1000 µg/mL.
For `CC(=O)Oc1cccnc1C(=O)N(C(C)=O)c1c(OC(C)=O)cccc1-c1nc2c(C(=O)O)cccc2o1` [triacetyl derivative], the MIC in data set [12] worked out at 64 µg/mL (≈ 124 µM); in [13], 4 µg/mL (≈ 7.73 µM); in [14] (V41, agar-dilution, 24 hours, read-out: MIC), 32 µg/mL (≈ 61.8 µM); in data set [15], 32 µg/mL (≈ 61.8 µM); in data set [16], 8 µg/mL (≈ 15.5 µM); in data set [17], 4 µg/mL (≈ 7.73 µM). The MIC in data set [18] is 64 µg/mL (≈ 124 µM); in data set [19] (read-out: MIC), 16 µg/mL (≈ 30.9 µM); in data set [20] (agar-dilution, 24 hours, read-out: MIC), above 128 µg/mL; in data set [21] it was above 128 µg/mL. In “physchem” (pH 4.7, pKa), this molecule had a pKa of 6.85. The solubility result in the data set “Solubility” (setting [23]) is on record as “soluble”; in the data set “Solubility” (hydrocarbon solvents and water), “insoluble”.
